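Grown in 96-well plates, cells were treated for 48 hours with each compound at five concentrations. Insufficient inhibition: endpoint recorded as highest concentration tested. TGI: concentration producing complete growth inhibition.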
Legend:
Assay in all cases: NCI tumour cell line growth inhibition, 48 h
[1] = test system: HCT-15 colon
[2] = test system: M14 melanoma
[3] = test system: HCC-2998 colon
[4] = test system: DMS 114 small cell lung
[5] = test system: SNB-19 CNS
[6] = test system: IGROV1 ovarian
[7] = test system: NCI-H522 lung
[8] = test system: LXFL 529 NSCLC
[9] = test system: MOLT-4 leukemia
[10] = test system: NCI-H226 lung
[11] = test system: NCI-H460 lung
[12] = test system: SW-620 colon
[13] = test system: HOP-62 NSCLC
[14] = test system: A498 renal
[15] = test system: HCT-116 colon
[16] = test system: CAKI-1 renal
[17] = test system: MALME-3M melanoma
[18] = test system: UACC-257 melanoma
[19] = test system: SF-268 CNS
[20] = test system: RXF 393 renal
[21] = test system: OVCAR-3 ovarian
[22] = test system: DLD-1 colon
[23] = test system: NCI-H23 lung
[24] = test system: HL-60(TB) leukemia
[25] = test system: M19-MEL melanoma
[26] = test system: KM20L2 colon
[27] = test system: COLO 205 colon
[28] = test system: HT29 colon
[29] = test system: 786-0 renal
[30] = test system: A549 NSCLC
[31] = test system: OVCAR-5 ovarian
[32] = test system: DMS 273 small cell lung
[33] = test system: SK-MEL-5 melanoma
[34] = test system: KM12 colon
[35] = test system: SK-MEL-2 melanoma
[36] = test system: SNB-75 CNS
[37] = test system: HOP-18 NSCLC
[38] = test system: SF-295 CNS
[39] = test system: SF-539 CNS
[40] = test system: SK-MEL-28 melanoma
[41] = test system: TK-10 renal
[42] = test system: OVCAR-4 ovarian
[43] = test system: OVCAR-8 ovarian
[44] = test system: UACC-62 melanoma
[45] = test system: HOP-92 NSCLC
[46] = test system: SK-OV-3 ovarian
[47] = test system: U251 CNS
[48] = test system: SN12C renal
[49] = test system: SNB-78 CNS
[50] = test system: EKVX NSCLC
[51] = test system: ACHN renal
[52] = test system: UO-31 renal
[53] = test system: LOX IMVI melanoma
[54] = test system: RXF-631 renal
[55] = test system: CCRF-CEM leukemia
[56] = test system: RPMI-8226 leukemia
[57] = test system: K-562 leukemia
[58] = test system: SR leukemia

Measured: TGI

CC1=C(C(=O)Nc2ccccc2)C(c2ccccc2)C(C(=O)Nc2ccccc2)=C(C)N1
not listed: [53] | [54] | [55] | [56] | [57] | [58]
> 100 µM: all other assays above

COc1ccc(N2C(=O)/C(=C(\C)c3cc4ccccc4oc3=O)N=C2c2cc([N+](=O)[O-])ccc2Cl)cc1
39.1 µM: [7]
86.3 µM: [2]
87.4 µM: [34]
70.8 µM: [24]
82.6 µM: [14]
not listed: [1] | [20] | [29] | [32] | [41] | [45]
> 100 µM: all other assays above

— PubChem BioAssay (NCI)
